Laboratory results from US9173876B2, “Preparation and therapeutic applications of (2S,3R)-N-2-((3-pyridinyl)methyl)-1-azabicyclo[2.2.2]oct-3-yl)-3,5-difluorobenzamide” (Targacept, Inc., priority 2009, dated 2015).

Assays:
[1] = target: nicotinic α7 receptor (Homo sapiens, UniProt P36544); assay: Electrophysiology, co-application with ACh (hump currents, Dynaflow chip); type: cell-based
Procedure: Hump currents are defined as the tail current observed during co-application with endogenous ACh following agonist removal.
The channels were prepared as follows: Control solution (channel #2), application ligand itself (channel #3), application of acetylcholine itself (channel #1), and application of mixture of acetylcholine and ligand (channel #4).
Curve 1, FIG. 7B: The bar above the curve indicates time of ACh application. The curve represents current induced by a one second application of 70 μM ACh. The curve illustrates the result from moving the cell from channel #2 to channel #1 for a 1 second application of ACh and back to channel 2 (washout).
Curve 4, FIG. 7B: Curve 4 represents a repetition of Curve 1 at the end of measurements after application of the ligand and ACh/ligand mixture (recovery).
Curve 2, FIG. 7B: The down/up arrows indicates time of application.

[2] = test system: Sprague-Dawley rats; assay: Complete Freund's adjuvant (CFA)-induced thermal hyperalgesia; type: in vivo, rat; settings: 0.1, 1 or 10 mg/kg s.c., 1 hour post-dose, vs vehicle
Text: Briefly, adult male Sprague-Dawley rats (BioLasco, Taiwan) weighing 180±20 g on receipt were randomly assigned to treatment groups of n=8 per group. […] A subject was placed within a plastic box atop an elevated glass floor and a light beam located under the glass floor was directed at the plantar surface of the right hind paw. The time required for the animal to withdraw the paw from the thermal stimulus was automatically recorded. The intensity of the light was adjusted to evoke an average group baseline latency from 12-14 seconds (pre-CFA) and a cut-off latency of 20 seconds was imposed. The latency for paw withdrawal was obtained for each rat and defined as the heat pain threshold.
Test substance, morphine and vehicle were administered by subcutaneous (s.c.) injection at time 0. The post-treatment level of thermal hyperalgesia was then measured at 60 minutes post-treatment. One-way ANOVA followed by Dunnett's test was applied for comparison between test substance treated groups and vehicle control group. Activity was considered significant at the P<0.05 level.

[3] = test system: normal rats; assay: Novel object recognition (NOR) task; type: in vivo, rat; settings: for Duration of Effect, NOR (time after dosing): after 3rd administration; for Minimum Effective Dose (MED), NOR: oral, rats, follow-up study FIG. 2
Procedure: Memory was assessed by using the three-trial novel object recognition test. On the first day (exploratory trial), rats were allowed to explore an open arena (44.5×44.5×30.5 cm) for 6 min. On the second day (acquisition trial), rats were allowed to explore the same arena in the presence of two identical objects (both object A) for 3 minutes. On the third day (retention or recall trial), performance was evaluated by allowing the same animal to re-explore the arena for 3 minutes in the presence of two different objects: the familiar object A and a novel object B. An inter-trial interval of 24 hours was imposed between the three NOR trials. Recognition memory was assessed by comparing the time spent exploring a novel (object B) versus a familiar (object A) object during the recall trial. Recognition index was assessed for each animal and expressed as a ratio ((time B/time A+time B)×100).

[4] = Aqueous solubility (salt screen); settings: free base form
[5] = test system: CD-1 mice; assay: Formalin test; type: in vivo, mouse
Procedure: Subjects (adult male CD-1 mice (Charles River, Raleigh, N.C.) weighing approximately 20-25 grams) were removed from their home cage and weighed, then placed in a clear Plexiglas™ observation box for an acclimation period of 20-30 minutes. Mice were then removed from the observation chambers and (2S,3R)—N-2-((3-pyridinyl)methyl)-1-azabicyclo[2.2.2]oct-3-yl)-3,5-difluorobenzamide (as the hydrochloride salt in 0.9% saline) (1, 3 or 10 mg/kg s.c. (calculated with respect to the free base)), morphine (5 mg/kg; s.c.) or 0.9% saline vehicle was administered subcutaneously in a volume of 1 mL/kg. Mice were then returned to the chamber for the predetermined pretreatment time of 30 minutes for (2S,3R)—N-2-((3-pyridinyl)methyl)-1-azabicyclo[2.2.2]oct-3-yl)-3,5-difluorobenzamide and morphine.
The subject's assigned paw was grasped gently and formalin solution was injected into the paw intra-dermally in the middle on the dorsal side. Once injected, the subject was immediately returned to its observation chamber and a timer was started to mark the beginning of Phase I. Each subject was videotaped for the entire 40-minute session. […] The time spent licking during that 1 min interval was recorded, and the presence or absence of paw favoring was noted.
For data analyses, phase I of the test was defined as 0 to 5 minutes after formalin injection, and phase II was defined as 20 to 40 minutes after formalin injection. The time spent licking during the 1 minute intervals during those time frames was recorded and graphed as mean±S.E.M. For comparisons across treatment groups, 1-way analyses of variance (ANOVAs) were performed for each phase of the session with treatment as the […] variable. Post-hoc analyses were performed when appropriate to determine specific group differences.

nicotinic α7 receptor, sequence (P36544 23-502): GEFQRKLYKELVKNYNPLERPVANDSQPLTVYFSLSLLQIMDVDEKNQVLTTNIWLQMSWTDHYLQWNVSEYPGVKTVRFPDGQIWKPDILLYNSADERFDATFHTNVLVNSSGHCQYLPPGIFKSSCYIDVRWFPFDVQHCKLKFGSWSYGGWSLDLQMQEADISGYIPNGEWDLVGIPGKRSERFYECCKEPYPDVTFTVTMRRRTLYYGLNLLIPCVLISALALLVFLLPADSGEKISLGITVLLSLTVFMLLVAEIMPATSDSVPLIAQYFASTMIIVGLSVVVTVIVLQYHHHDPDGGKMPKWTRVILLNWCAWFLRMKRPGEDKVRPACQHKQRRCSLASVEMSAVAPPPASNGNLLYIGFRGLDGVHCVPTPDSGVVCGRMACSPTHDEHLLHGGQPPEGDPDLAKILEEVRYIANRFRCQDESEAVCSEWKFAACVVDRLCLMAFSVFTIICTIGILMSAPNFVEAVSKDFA

O=C(N[C@@H]1C2CCN(CC2)[C@H]1Cc1cccnc1)c1cc(F)cc(F)c1 [Compound A]
Hump current on application of compound following ACh ([1]; 200 nM compound with ACh, Curve 3 FIG. 7B): profound “hump” current
Current produced by compound alone ([1]; 200 nM, 5 second application, Curve 2 FIG. 7B): do not produce robust macro currents
Concentration at EMAX of hump current ([1]; 100-500 nM range, n=4, FIG. 7C): approximately 500 nM
Effect on ACh-induced current on co-application with ACh ([1]; FIG. 6): enhanced ACh-induced current
Analgesic effect on CFA-induced thermal hyperalgesia [2]: not associated with any significant analgesic effect
NOR effect after single oral administration (recall only session) ([3]; 0.28 μmol/kg oral on day 3 only): pro-cognitive effects
Recognition index ([3]; 0.28 μmol/kg oral, 0.5 h after dosing, FIG. 3): 68±4%
Recognition index ([3]; 0.28 μmol/kg oral, 2 h after dosing, FIG. 3): 71±2%
Recognition index ([3]; 0.28 μmol/kg oral, 6 h after dosing, FIG. 3): 62±2%
Recognition index ([3]; 0.28 μmol/kg oral, 24 h after acquisition trial, FIG. 1, vehicle 54±1%): 74±3%
Recognition index ([3]; 0.84 μmol/kg oral, 0.5 h after dosing, FIG. 4): 59±2%
Recognition index ([3]; 0.84 μmol/kg oral, 2 h after dosing, FIG. 4): 63±2%
Recognition index ([3]; 0.84 μmol/kg oral, 6 h after dosing, FIG. 4): 68±3%
Recognition index ([3]; 0.84 μmol/kg oral, 18 h after dosing, FIG. 4): 68±3%
Recognition index ([3]; 0.84 μmol/kg oral, 24 h after acquisition trial, FIG. 1, vehicle 54±1%): 70±4%
Duration of Effect, NOR (time after dosing) ([3]; 0.1 mg/kg (0.28 μmol/kg) oral, FIG. 3, listed as (2S,3R)-N-2-((3-pyridinyl)methyl)-1-azabicyclo[2.2.2]oct-3-yl)-3,5-difluorobenza): Duration 6 h (@ 0.1 mg/kg)
Duration of Effect, NOR (time after dosing) ([3]; 0.3 mg/kg (0.84 μmol/kg) oral, FIG. 4, listed as (2S,3R)-N-2-((3-pyridinyl)methyl)-1-azabicyclo[2.2.2]oct-3-yl)-3,5-difluorobenza): Duration 18 h (@ 0.3 mg/kg)
Duration of Effect, NOR (time after dosing) ([3]; 0.3 mg/kg (0.84 μmol/kg) oral, FIG. 4, listed as Formula I): ≤ 18 h
Doses with statistically significant effect in NOR ([3]; NOR vs. dose, FIG. 1): ≥ 0.1 mg/kg
Doses with statistically significant effect in NOR ([3]; minimum effective dose study, FIG. 2): ≥ 0.03 mg/kg
Minimum Effective Dose (MED), NOR ([3]; listed as (2S,3R)-N-2-((3-pyridinyl)methyl)-1-azabicyclo[2.2.2]oct-3-yl)-3,5-difluorobenza): MED = 0.084 μmol/kg
Minimum Effective Dose (MED), NOR ([3]; listed as (2S,3R)—N-2-((3-pyridinyl)methyl)-1-azabicyclo[2.2.2]oct-3-yl)-3,5-difluorobenza): 0.084 µmol/kg
Water solubility [4]: limited
Time spent licking the paw, phase II ([5]; 10 mg/kg s.c., 20-40 min after formalin, P<0.05): significant in reducing the time spent licking the paw
Time spent licking, phase I ([5]; 1, 3 or 10 mg/kg s.c., 0-5 min after formalin): no statistically significant dose
Time spent licking, phase I or phase II, re-scored across the entire time period ([5]; subsequent analysis of the original videotapes): failed to achieve statistical significance
